These results are taken from publication PMC4864329, “In vitro and in vivo efficacy, toxicity, bio-distribution and resistance selection of a novel antibacterial drug candidate” (Scientific Reports, 2016).

Each structure is given as a SMILES string. Positions of bridges follow the written chain, without caps; N, C: chain ends. Non-standard residues stand in square brackets, D forms with d. Residues, ends and D or L forms follow the SMILES beside them. Chains are numbered I, II in the order given. PEG4 = NCCOCCOCCOCCOCCC(=O)O

Data set [1] deals with P. aeruginosa PAO1. As to the kind of experiment: Sepsis model in neutropenic BALB/c mice, survival. The data set is classed as in vivo, Pseudomonas aeruginosa. The note with it: PAO1 1.5 × 10^3 CFU/mouse i.p., 5 mg/Kg i.v. twice, 24 and 72 h post-infection, 12 days, 10 mice/group. As for the experimental part:
Neutropenic mice were injected i.p. with a lethal amount of P. aeruginosa PAO1 (1.5 × 10^3 CFU/mouse). Then mice were treated twice i.v. with SET-M33L or SET-M33L-PEG (5 mg/Kg), 24 and 72 hours post-infection. Then animals were monitored for survival for 12 days. Survivals of 60% and 80% were obtained with SET-M33L or SET-M33L-PEG, respectively (Fig. 1). Note that this is a model of acute and rapidly progressive infection, since animals start to show signs of disease within 24 hours and controls died after 40–65 hours. Treatment with the peptides begun 24 h after onset of the infection. The relatively long interval between i.p. inoculation of bacteria and the start of i.v. treatment in animals with suppressed immune systems is a valid indication of the potency of the peptides in vivo.
Animal procedures were approved by the Ethics Committees of the Azienda Ospedaliera Universitaria Senese on November 18, 2010, and of the Italian Ministry of Health on September 21, 2012. Eight-week-old (20 g) BALB/c female mice (Charles River) were used in all experiments. […] All p values were calculated using GraphPad Prism 5.0 software.
In the Pseudomonas model of sepsis[35] animals were rendered neutropenic by i.p. administration of cyclophosphamide (Sigma-Aldrich C7397) at 150 mg/kg (300 μl of a 10 mg/ml solution) 4 days and 1 day before infection. […] Surviving mice were monitored for 12 days. […]

The subject of data set [2] is P. aeruginosa PAO1. Kind of data set: Lung infection model in neutropenic BALB/c mice, i.v. treatment, survival. The note with it: PAO1 1.5 × 10^3 CFU/mouse i.t., 5 mg/Kg i.v. twice, 1 and 16 h post-infection, 10 days, 10 mice/group. Type of data set: in vivo, Pseudomonas aeruginosa. As for the experimental part: Neutropenic mice were injected intra-tracheally (i.t.) with a lethal amount of P. aeruginosa PAO1 (1.5 × 10^3 CFU/mouse). They were then treated twice i.v. 1 and 16 hours post-infection with SET-M33L or SET-M33L-PEG 5 mg/Kg and monitored for survival for 10 days. We obtained 40% and 60% survival with SET-M33L and SET-M33L-PEG, respectively (Fig. 2A).
Animal procedures were approved by the Ethics Committees of the Azienda Ospedaliera Universitaria Senese on November 18, 2010, and of the Italian Ministry of Health on September 21, 2012. Eight-week-old (20 g) BALB/c female mice (Charles River) were used in all experiments. The animals were maintained and handled in accordance with the Guidelines for Accommodation and Care of Animals (European Convention for the Protection of Vertebrate Animals Used for Experimental and Other Scientific Purposes) and internal guidelines. For each experiment the animals were housed in groups of five mice per cage upon arrival and maintained with food and water ad libitum for 5 days before the beginning of treatment. All p values were calculated using GraphPad Prism 5.0 software.
We set up two lung infection models, one for i.v. and the other for intra-tracheal (i.t.) treatment. In the i.v. model, animals were made neutropenic as described in the sepsis model. […] Surviving mice were monitored for 10 days. […]

The subject of data set [3] is BALB/c mice. Kind of data set: Acute toxicity in mice, single i.v. dose. Type of data set: in vivo, mouse. On the procedure: As preliminary toxicity evaluation we first compared the acute toxicity of SET-M33L and SET-M33L-PEG with that of colistin. Animals (10 BALB/c mice/group) were injected i.v. with different amounts of SET-M33L, SET-M33L-PEG or colistin, in single dose, in the range 5–40 mg/kg (Fig. 4), and were monitored for 4 days after inoculation of the peptide. […] At 40 mg/Kg SET-M33L and SET-M33L-PEG produced similar toxicity profiles with strong signs of toxicity and 90–100% mortality after 96 hours. Colistin produced strong signs of toxicity already at 10 mg/Kg: 50% mortality immediately after inoculation and 70% mortality after 24 hours. Colistin induced sudden death in 100% of mice at 20 and 40 mg/Kg.
Mice were treated by a single i.v. administration of different amounts (40, 20, 10, 5 mg/Kg) of SET-M33L, SET-M33L-PEG or colistin sulfate (Sigma-Aldrich, C4461). Signs of toxicity were checked four times a day by visual inspection. A toxicity score was assigned for the following signs: wiry coat and poor motility = mild signs; very wiry coat, abundant lachrymation and poor motility even under stimulation = manifest signs. Animals were monitored for 4 days after inoculation of the peptide. Mice were weighed every day from arrival to the last day of the experiment. Moribund animals were killed humanely to avoid unnecessary distress.

`CC[C@H](C)[C@H](NC(=O)[C@H](CCCCN)NC(=O)[C@@H](N)CCCCN)C(=O)N[C@@H](CCCNC(=N)N)C(=O)N[C@H](C(=O)N[C@@H](CCCNC(=N)N)C(=O)N[C@@H](CC(C)C)C(=O)N[C@@H](CO)C(=O)N[C@@H](C)C(=O)NCCCC[C@H](NC(=O)[C@H](C)NC(=O)[C@H](CO)NC(=O)[C@H](CC(C)C)NC(=O)[C@H](CCCNC(=N)N)NC(=O)[C@@H](NC(=O)[C@H](CCCNC(=N)N)NC(=O)[C@@H](NC(=O)[C@H](CCCCN)NC(=O)[C@@H](N)CCCCN)[C@@H](C)CC)C(C)C)C(=O)NCCCC[C@H](NC(=O)[C@H](CCCCNC(=O)[C@H](C)NC(=O)[C@H](CO)NC(=O)[C@H](CC(C)C)NC(=O)[C@H](CCCNC(=N)N)NC(=O)[C@@H](NC(=O)[C@H](CCCNC(=N)N)NC(=O)[C@@H](NC(=O)[C@H](CCCCN)NC(=O)[C@@H](N)CCCCN)[C@@H](C)CC)C(C)C)NC(=O)[C@H](C)NC(=O)[C@H](CO)NC(=O)[C@H](CC(C)C)NC(=O)[C@H](CCCNC(=N)N)NC(=O)[C@@H](NC(=O)[C@H](CCCNC(=N)N)NC(=O)[C@@H](NC(=O)[C@H](CCCCN)NC(=O)[C@@H](N)CCCCN)[C@@H](C)CC)C(C)C)C(=O)NCCOCCOCCOCCOCCC(N)=O)C(C)C` [SET-M33L-PEG] (I: H-KKIRVRLSAKK[PEG4]-NH2 / II: H-KKIRVRLSAK / III: H-KKIRVRLSA / IV: H-KKIRVRLSA; amide I:10-IV:C, I:11-II:C, II:10-III:C; N-terminus assumed): the survival in data set [1] is 80%; in data set [2], 60%. For the same compound, in data set [3] (single i.v. dose 40 mg/Kg, after 96 hours), the mortality is 90–100%. In data set [3] (single i.v. dose up to 20 mg/kg, monitored 4 days, 10 BALB/c mice/group), the “lethality and signs of toxicity” value is “not lethal and no signs of toxicity were observed”.
